Laboratory results: patent publication EP1484329A1, “Indole derivatives with apoptosis inducing activity” (Zentaris GmbH, priority 2003, dated 2004)
Values after ≈ are worked out from the molar mass of the structure shown. Like-named read-outs stand apart in the source and are kept apart here.

Tests used:
P388ADR = test: XTT proliferation assay, P388ADR (doxorubicin-resistant); assay type: cell-based, murine
Excerpt: (§1) Die Substanzen 1,2, 4-6 wurden in einem Proliferationstest an etablierten Tumorzelllinien auf ihre anti-proliferative Aktivität hin untersucht (D.A. Scuderio et al. Cancer Res. 1988, 48, 4827-4833). Der verwendete Test bestimmt die zelluläre Dehydrogenase-Aktivität und ermöglicht eine Bestimmung der Zellvitalität und indirekt der Zellzahl. Bei den verwendeten Zelllinien handelt es sich um die humane Cervixkarzinom Zelllinie KB/HeLa (ATCC CCL17), die ovariale Adenokarzinomzelllinie SKOV-3 (ATCC HTB77), die humane Glioblastom Zelllinie SF-268 (NCI 503138) und die Lungenkarzinom Zelllinie NCI-H460 (NCI 503473). Des weiteren wurde zur Untersuchung der Zellzyklus-spezifischen Wirkung der Substanz ein RKOp27 Zellsystem verwendet (M. Schmidt et al. Oncogene19(20):2423-9, 2000). Bei RKO handelt es sich um eine humane Kolonkarzinomlinie, in der der Zellzyklusinhibitor p27 ^kip1 mittels des Ecdyson Expressionssystems induziert zur Expression gebracht und zu einem Zellzyklusarrest spezifisch in G2 geführt werden kann. Eine unspezifisch wirkende Substanz hemmt die Proliferation unabhängig davon, ob die RKO Zelle in G1 oder G2 arretiert ist oder nicht. Zellzyklus-spezifische Substanzen wie beispielsweise Tubulininhibitoren sind hingegen nur dann zytotoxisch, wenn Zellen nicht arretiert sind und der Zellzyklus durchlaufen wird. In Tabelle 1 ist die zytotoxische bzw. wachstumshemmende Aktivität der beschriebenen Verbindungen mit / ohne Expression von p27^kip1gezeigt. Die getesteten Verbindungen zeigten im induzierten Zustand von p27^kiP1 keine zytotoxische Aktivität. Die Ergebnisse zeigen eine sehr potente Hemmung der Proliferation ausgewählter Tumorzelllinien durch die genannten Substanzen. Tabelle 1:
(§2) Zur weiteren Charakterisierung wurden die Substanzen 1,2,4-6 gegenüber multi drug resistenten Zelllinien im Vergleich zu den nicht-resistenten Wildtypzelllinien untersucht.
(§3) Bei den untersuchten Zelllinien handelt es sich um die murine L1210, die akute myeloische Leukaemie Zelllinie LT12 und um die resistenten Linien L1210/mdr und LT12/mdr. Außerdem wurden die murine P388 Zelllinie (methyl-cholanthreneinduced lymphoid neoplasm) sowie die Doxorubicin-resistente P388 als Testsysteme herangezogen.

LT12 = test: XTT proliferation assay, LT12 (wild type); assay type: cell-based
Excerpt: as §1, §2, §3

KB/HeLa = test: XTT proliferation assay, KB/HeLa; assay type: cell-based; conditions: Homo sapiens, read-out: XTT Proliferationsassay, EC50 KB/Hela
Excerpt: as §1, with “Substanzen.” for “Substanzen. Tabelle 1:”

SKOV-3 = test: XTT proliferation assay, SKOV-3; assay type: cell-based; conditions: Homo sapiens, SK-OV-3; read-out: XTT Proliferationsassay, EC50 SKOV3
Excerpt: as §1, with “Substanzen.” for “Substanzen. Tabelle 1:”

L1210VCR = test: XTT proliferation assay, L1210VCR (resistant); assay type: cell-based, murine
Excerpt: as §1, §2, §3

SF-268 = test: XTT proliferation assay, SF-268; assay type: cell-based; conditions: Homo sapiens, read-out: XTT Proliferationsassay, EC50 SF-268
Excerpt: as §1, with “Substanzen.” for “Substanzen. Tabelle 1:”

L1210 = test: XTT proliferation assay, L1210 (wild type); assay type: cell-based, murine
Excerpt: as §1, §2, §3

NCI-H460 = test: XTT proliferation assay, NCI-H460; assay type: cell-based; conditions: Homo sapiens, read-out: XTT Proliferationsassay, EC50 NCI-H460
Excerpt: as §1, with “Substanzen.” for “Substanzen. Tabelle 1:”

LT12mdr = test: XTT proliferation assay, LT12mdr (resistant); assay type: cell-based; conditions: read-out: XTT Proliferationsassay, EC50 LT12mdr
Excerpt: as §1, §2, §3

U118MG = test: XTT proliferation assay, U118MG; assay type: cell-based; conditions: Homo sapiens, U-118-MG; read-out: XTT Proliferationsassay, EC50 U118MG
Excerpt: as §1
Zur weiteren Charakterisierung wurden die Substanzen 1-6 an einem Panel von 7 humanen Tumorzelllinien auf ihre anti-proliferative Wirkung hin untersucht. Bei den untersuchten Zelllinien handelt es sich um die humanen Glioma Zelllinien A172 (ATCC CRL-1620) und U118 (ATCC HTB-15), die humane Lungenkarzinom Zelllinie A549, das humane epidermoide Karzinom A431 (ATCC CRL-2592), die humanen Prostatakarzinom Zelllinien DU145 (ATCC HTB-81) und PC3 (ATCC CRL-1435) und die humane Kolon Adenokarzinomzelllinie HT29 (ATCC HTB-38). Es handelt sich hierbei um sehr gut charakterisierte, etablierte Zelllinien, die von ATCC, ECACC bzw. NCI erhalten und in Kultur genommen wurden. Die in Tab. […]

KB/HeLa Zellen = test: Cell cycle analysis (G2/M arrest); assay type: cell-based; conditions: Homo sapiens, read-out: EC50 in nM (50% cells in G2/M)
Description: Für die Zellzyklusanalyse wurden KB/HeLa Zellen mit den Testsubstanzen in unterschiedlichen Konzentrationen (0.1-1000 nM) 24 Stunden bei 37°C behandelt.
Der prozentuale Anteil der in der G2/M Phase des Zellzyklus arrettierten Zellen nach Behandlung mit Referenz- oder ausgewählten Testsubstanzen ist in der nachfolgenden Tabelle 5 dargestellt. Die Ergebnisse wurden mit einer speziellen Analysesoftware (ModFit™) ausgewertet.

[1] = Mus musculus, P388/ADR; read-out: XTT Proliferationsassay, EC50 P388ADR

Row | SMILES | EC50 (P388ADR; Mus musculus, P388/ADR, read-out: XTT Proliferationsassay, EC50 P388ADR) | EC50 (LT12; Rattus norvegicus, LT12, read-out: XTT Proliferationsassay, EC50 LT12) | EC50 (KB/HeLa) | EC50 (SKOV-3) | EC50 (L1210VCR; Mus musculus, read-out: XTT Proliferationsassay, EC50 L1210VCR) | EC50 (SF-268) | EC50 (L1210; Mus musculus, L1210, read-out: XTT Proliferationsassay, EC50 L1210) | EC50 (NCI-H460) | EC50 (LT12mdr) | EC50 (U118MG) | EC50 (KB/HeLa Zellen; HeLa, 24 h) | EC50 (P388ADR; [1]) | EC50 (LT12; Rattus norvegicus, LT12; read-out: XTT Proliferationsassay, EC50 LT12) | EC50 (L1210VCR; Mus musculus; read-out: XTT Proliferationsassay, EC50 L1210VCR) | EC50 (L1210; Mus musculus, L1210; read-out: XTT Proliferationsassay, EC50 L1210) | EC50 (KB/HeLa Zellen; KB/HeLa, 24 h at 37°C, 0.1-1000 nM)
1 | O=C(Nc1ccc2ncccc2c1)C(=O)c1cn(Cc2ccc(Cl)cc2)c2ccccc12 [Verbindung 2, 2-[1-(4-Chlor-benzyl)-1 H-indol-3-yl]-2-oxo-N-chinolin-6-yl-acetamid] | 0.056 µg/mL (≈ 0.127 µM) | 0.044 µg/mL (≈ 0.1 µM) | 0.027 µg/mL (≈ 0.0614 µM) | 0.018 µg/mL (≈ 0.0409 µM) | 0.078 µg/mL (≈ 0.177 µM) | 0.027 µg/mL (≈ 0.0614 µM) | 0.074 µg/mL (≈ 0.168 µM) | 0.054 µg/mL (≈ 0.123 µM) | 0.063 µg/mL (≈ 0.143 µM) | 0.022 µg/mL (≈ 0.05 µM) | 52.3 nM |  |  |  |  | 
2 | O=C(Nc1ccc2ncccc2c1)C(=S)c1cn(Cc2ccc(Cl)cc2)c2ccccc12 [Verbindung 4, 2-[1-(4-Chlorbenzyl)-1 H-indol-3-yl]-N-chinolin-6-yl-2-thioxoacetamid] |  |  |  |  |  |  |  |  |  | 0.03 µg/mL (≈ 0.0658 µM) |  | 0.051 µg/mL (≈ 0.112 µM) |  |  |  | 
3 | O=C(Nc1cnc2nccnc2c1)C(=O)c1cn(Cc2ccc(Cl)cc2)c2ccccc12 [Verbindung 5, 2-[1-(4-Chlor-benzyl)-1H-indol-3-yl]-2-oxo-N-pyrido[2,3-b]pyrazin-7-yl-acetamid] |  |  | 0.045 µg/mL (≈ 0.102 µM) | 0.029 µg/mL (≈ 0.0656 µM) |  | 0.042 µg/mL (≈ 0.095 µM) |  | 0.046 µg/mL (≈ 0.104 µM) | 0.017 µg/mL (≈ 0.0385 µM) | 0.013 µg/mL (≈ 0.0294 µM) |  | 0.019 µg/mL (≈ 0.043 µM) | 0.015 µg/mL (≈ 0.0339 µM) | 0.021 µg/mL (≈ 0.0475 µM) | 0.018 µg/mL (≈ 0.0407 µM) | 31.9 nM
